Assay results taken from patent US6737383B1, “Herbicidal oxadiazolidines” (priority 1999, dated 2004).

How the values were obtained:
corn = experiment: Test B pre/postemergence corn; type: in vivo, Zea mays
In short: (§1)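 Test chemicals in a non-phytotoxic solvent mixture with surfactant were sprayed preemergence onto planted seeds and postemergence onto plants 2 to 18 cm tall (1- to 4-leaf stage). After twelve to sixteen days in a greenhouse, injury was visually rated against untreated controls from 0 (no effect) to 10 (complete control).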

rice = experiment: Test B flood test rice; type: in vivo, Oryza sativa
In short: (§2)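 Plants were grown to the 2-leaf stage before treatment with test chemical, then held in a greenhouse for twelve to sixteen days. Injury was visually rated against untreated controls on a 0–10 scale, where 0 is no effect and 10 is complete control.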

pigweed = experiment: Test B pre/postemergence pigweed; type: in vivo, Amaranthus retroflexus
In short: as §1

soybean = experiment: Test B pre/postemergence soybean; type: in vivo, Glycine max
In short: as §1

sugar beet = experiment: Test B pre/postemergence sugar beet; type: in vivo, Beta vulgaris
In short: as §1

giant foxtail = experiment: Test B pre/postemergence giant foxtail; type: in vivo, Setaria faberii
In short: as §1

purple nutsedge = experiment: Test B pre/postemergence purple nutsedge; type: in vivo, Cyperus rotundus
In short: as §1

blackgrass = experiment: Test B pre/postemergence blackgrass; type: in vivo, Alopecurus myosuroides
In short: as §1

smallflower flatsedge = experiment: Test B flood test smallflower flatsedge; type: in vivo, Cyperus difformis
In short: as §2

rape = experiment: Test B pre/postemergence rape; type: in vivo, Brassica napus
In short: as §1

bedstraw = experiment: Test B pre/postemergence bedstraw; type: in vivo, Galium aparine; conditions: Rate 62 g/ha, Postemergence; scale 0 to 10, 0 no effect, 10 complete control
In short: as §1

duck salad = experiment: Test B flood test duck salad; type: in vivo, Heteranthera limosa
In short: as §2

velvetleaf = experiment: Test B pre/postemergence velvetleaf; type: in vivo, Abutilon theophrasti
In short: as §1

bamyardgrass = experiment: Test B flood test barnyardgrass; type: in vivo, Echinochloa crus-galli
In short: as §2

surinam grass = experiment: Test B pre/postemergence surinam grass; type: in vivo, Brachiaria decumbens
In short: as §1

morningglory = experiment: Test B pre/postemergence morningglory; type: in vivo, Ipomoea hederacea
In short: as §1

[1] = Postemergence, Rate 250 g/ha, scale 0 to 10
[2] = Postemergence, Rate 500 g/ha, scale of 0 to 10 where 0 is no effect and 10 is complete control
[3] = Preemergence, Rate 62 g/ha, scale of 0 to 10 where 0 is no effect and 10 is complete control
[4] = Preemergence, Rate 125 g/ha, scale of 0 to 10 where 0 is no effect and 10 is complete control
[5] = Preemergence, Rate 250 g/ha, scale 0 to 10, 0 is no effect, 10 is complete control
[6] = Preemergence, Rate 500 g/ha, scale 0 to 10, 0 is no effect, 10 is complete control
[7] = Rate 62 g/ha, Postemergence, scale 0 to 10, 0 no effect, 10 complete control
[8] = Rate 125 g/ha, Postemergence, scale 0 to 10, 0 is no effect, 10 is complete control
[9] = Rate 62 g/ha, flood test species, Pre-emergence, visual evaluation after twelve to sixteen days
[10] = Rate 125 g/ha, under heading Pre-emergence, flood test species, visual evaluation after twelve to sixteen days
[11] = Rate 250 g/ha, Pre-emergence (flood test species), scale 0 to 10, 0 is no effect, 10 is complete control
[12] = Rate 500 g/ha, Pre-emergence, flood test species, scale 0 to 10 (0 no effect, 10 complete control)

Cc1nc(C)c(C(C)n2c(=O)on(C(=O)N(c3ccc(F)cc3F)C(C)C)c2=O)s1 (stereo not drawn) [Compound 443]
0: Corn plant response rating (corn; [1]) | Corn plant response rating (corn; [2]) | Plant response rating, Corn (corn; [3]) | Plant response rating, Corn (corn; [4]) | Corn plant response rating (corn; [5]) | Corn plant response rating (corn; [6]) | Corn plant response rating (corn; [7]) | Corn plant response rating (corn; [8]) | Plant response rating, Rice (0 to 10 scale, 0 is no effect, 10 is complete control) (rice; [9]) | Rice plant response rating (0 to 10 scale, 0 is no effect, 10 is complete control) (rice; [10]) | Rice plant response rating (rice; [11]) | Rice plant response rating (rice; [12]) | Redroot pigweed plant response rating (pigweed; [1]) | Redroot pigweed plant response rating (pigweed; [2]) | Plant response rating, Redroot pigweed (pigweed; [3]) | Plant response rating, Redroot pigweed (pigweed; [4]) | Redroot pigweed plant response rating (pigweed; [5]) | Redroot pigweed plant response rating (pigweed; [7]) | Redroot pigweed plant response rating (pigweed; [8]) | Plant response rating, Soybean (soybean; [3]) | Plant response rating, Soybean (soybean; [4]) | Soybean plant response rating (soybean; [5]) | Soybean plant response rating (soybean; [6]) | Sugarbeets plant response rating (sugar beet; [1]) | Sugarbeets plant response rating (sugar beet; [2]) | Plant response rating, Sugarbeets (sugar beet; [3]) | Plant response rating, Sugarbeets (sugar beet; [4]) | Sugarbeets plant response rating (sugar beet; [5]) | Sugarbeets plant response rating (sugar beet; [6]) | Sugarbeets plant response rating (sugar beet; [7]) | Sugarbeets plant response rating (sugar beet; [8]) | Giant foxtail plant response rating (giant foxtail; [1]) | Giant foxtail plant response rating (giant foxtail; [2]) | Giant foxtail plant response rating (giant foxtail; [7]) | Giant foxtail plant response rating (giant foxtail; [8]) | Nutsedge plant response rating (purple nutsedge; [1]) | Nutsedge plant response rating (purple nutsedge; [2]) | Plant response rating, Nutsedge (purple nutsedge; [3]) | Plant response rating, Nutsedge (purple nutsedge; [4]) | Nutsedge plant response rating (purple nutsedge; [5]) | Nutsedge plant response rating (purple nutsedge; [6]) | Nutsedge plant response rating (purple nutsedge; [7]) | Nutsedge plant response rating (purple nutsedge; [8]) | Blackgrass plant response rating (blackgrass; [1]) | Blackgrass plant response rating (blackgrass; [2]) | Plant response rating, Blackgrass (blackgrass; [3]) | Plant response rating, Blackgrass (blackgrass; [4]) | Blackgrass plant response rating (blackgrass; [5]) | Blackgrass plant response rating (blackgrass; [6]) | Blackgrass plant response rating (blackgrass; [7]) | Blackgrass plant response rating (blackgrass; [8]) | Plant response rating, S. Flatsedge (0 to 10 scale, 0 is no effect, 10 is complete control) (smallflower flatsedge; [9]) | S. Flatsedge plant response rating (0 to 10 scale, 0 is no effect, 10 is complete control) (smallflower flatsedge; [10]) | S. Flatsedge plant response rating (smallflower flatsedge; [11]) | S. Flatsedge plant response rating (smallflower flatsedge; [12]) | Rape plant response rating (rape; [1]) | Rape plant response rating (rape; [2]) | Plant response rating, Rape (rape; [3]) | Plant response rating, Rape (rape; [4]) | Rape plant response rating (rape; [5]) | Rape plant response rating (rape; [6]) | Rape plant response rating (rape; [7]) | Rape plant response rating (rape; [8]) | Bedstraw plant response rating (bedstraw) | Plant response rating, Ducksalad (0 to 10 scale, 0 is no effect, 10 is complete control) (duck salad; [9]) | Ducksalad plant response rating (0 to 10 scale, 0 is no effect, 10 is complete control) (duck salad; [10]) | Ducksalad plant response rating (duck salad; [11]) | Ducksalad plant response rating (duck salad; [12]) | Velvetleaf plant response rating (velvetleaf; [1]) | Velvetleaf plant response rating (velvetleaf; [2]) | Plant response rating, Velvetleaf (velvetleaf; [3]) | Plant response rating, Velvetleaf (velvetleaf; [4]) | Velvetleaf plant response rating (velvetleaf; [5]) | Velvetleaf plant response rating (velvetleaf; [6]) | Velvetleaf plant response rating (velvetleaf; [7]) | Velvetleaf plant response rating (velvetleaf; [8]) | Plant response rating, Barnyardgrass (0 to 10 scale, 0 is no effect, 10 is complete control) (bamyardgrass; [9]) | Barnyardgrass plant response rating (0 to 10 scale, 0 is no effect, 10 is complete control) (bamyardgrass; [10]) | Barnyardgrass plant response rating (bamyardgrass; [11]) | Barnyardgrass plant response rating (bamyardgrass; [12]) | B. signalgrass plant response rating (surinam grass; Postemergence, Rate 250 g/ha, scale 0 to 10, 0 no effect, 10 complete control) | B. signalgrass plant response rating (surinam grass; [2]) | Plant response rating, B. signalgrass (surinam grass; [3]) | Plant response rating, B. signalgrass (surinam grass; [4]) | B. signalgrass plant response rating (surinam grass; [5]) | B. signalgrass plant response rating (surinam grass; [7]) | B. signalgrass plant response rating (surinam grass; [8]) | Plant response rating, Morningglory (morningglory; [3]) | Plant response rating, Morningglory (morningglory; [4]) | Morningglory plant response rating (morningglory; [5]) | Morningglory plant response rating (morningglory; [6])
6: Redroot pigweed plant response rating (pigweed; [6])
2: Soybean plant response rating (soybean; [2]) | Morningglory plant response rating (morningglory; [7])
4: Plant response rating, Giant foxtail (giant foxtail; [4]) | Morningglory plant response rating (morningglory; [1]) | Morningglory plant response rating (morningglory; [2])
10: Giant foxtail plant response rating (giant foxtail; [5]) | Giant foxtail plant response rating (giant foxtail; [6]) | B. signalgrass plant response rating (surinam grass; [6])
3: Plant response rating, Giant foxtail (giant foxtail; [3]) | Morningglory plant response rating (morningglory; [8])
1: Soybean plant response rating (soybean; [1]) | Soybean plant response rating (soybean; [7]) | Soybean plant response rating (soybean; [8])
